Measurements: patent publication US10882869B2, “Condensed heterocyclic compounds and pesticides” (NISSAN CHEMICAL CORPORATION, priority 2015, dated 2021)

Assays:
Format in all cases: in vivo
Plutella xylostella = assay: Insecticidal test on Plutella xylostella (cabbage leaves soaked); conditions: 144 h, 500 ppm solution, 3rd-instar larvae, 6 days after, 25° C.
Method: (§1) Leaves of cabbage were soaked in the solutions for about 10 seconds. After the soaking, the leaves were dried in air and placed in dishes. In each dish, five 3rd-instar larvae of Plutella xylostella were released, and the dishes were covered with lids and placed in an incubator at 25° C. 6 Days after, dead insects in the dishes were counted, and the mortality was calculated by using the same equation as in Test Example 1. The test was carried out in duplicate.

Spodoptera litura = assay: Insecticidal test on Spodoptera litura (cabbage leaves soaked); conditions: 144 h, 500 ppm solution, 3rd-instar larvae, 6 days after, 25° C.
Method: as §1, with “Spodoptera litura” for “Plutella xylostella”

Ctenocephalides felis = assay: Test on the effect on Ctenocephalides felis (thin film in glass container); conditions: 96 h, application dose 10 μg/cm^2, adults, 4 days after release, 25° C.
Method: 350 μl of the solutions were applied to the bottoms and the side walls of glass containers with an inner wall surface area of 35 cm^2, and acetone was volatilized to prepare thin films of the compounds on the inner walls of the glass containers. Since the inner wall surface area of each glass container was 35 cm^2, the application dose was 10 μg/cm^2.
To each glass container, five adults (male and female) of Ctenocephalides felis were released, and the containers were covered with lids and placed in an incubator at 25° C. 4 Days after the release of the fleas, dead fleas were counted, and the mortality was calculated by using the same equation as in Test Example 1.

SMILES | mortality at 500 ppm (Plutella xylostella) | mortality at 500 ppm (Spodoptera litura) | mortality at 10 µg/cm2 (Ctenocephalides felis)
CCS(=O)(=O)c1c(-c2nc3cc(C(F)(F)F)cnc3s2)nc2cc(C(F)(F)F)ccn12 [1-13-001a, 2-[3-(ethylsulfonyl)-7-(trifluoromethyl)imidazo[1,2-a]pyridin-2-yl]-6-(trifluoromethyl)thiazolo[5,4-b]pyridine] | ≥ 90% | ≥ 90% | 
CCSc1c(-c2nc3cnc(C(F)(F)F)cc3n2C)nc2cc(Cl)ccn12 [1-9-003b, 2-[7-chloro-3-(ethylthio)imidazo[1,2-a]pyridin-2-yl]-1-methyl-6-(trifluoromethyl)-1H-imidazo[4,5-c]pyridine] | ≥ 90% |  | ≥ 50%
CCSc1c(-c2nc3cc(C(F)(F)F)cnc3n2C)nc2sc(C(F)(F)F)cn12 [2-1-001b, 5-(ethylthio)-6-[3-methyl-6-(trifluoromethyl)-3H-imidazo[4,5-b]pyridin-2-yl]-2-(trifluoromethyl)imidazo[2,1-b]thiazole] | ≥ 90% | ≥ 90% | 
CCSc1c(-c2nc3cc(C(F)(F)F)ncc3n2C)nc2cc(C(F)(F)F)ccn12 [1-8-005b, 2-[3-(ethylthio)-7-(trifluoromethyl)imidazo[1,2-a]pyridin-2-yl]-3-methyl-6-(trifluoromethyl)-3H-imidazo[4,5-c]pyridine] |  | ≥ 90% | 
CCSc1c(-c2nc3cc(C(F)(F)F)cnc3n2C)nc2cc(C(F)(F)F)c(Br)cn12 [1-1-023b, 2-[6-bromo-3-(ethylthio)-7-(trifluoromethyl)imidazo[1,2-a]pyridin-2-yl]-3-methyl-6-(trifluoromethyl)-3H-imidazo[4,5-b]pyridine] | ≥ 90% | ≥ 90% | ≥ 50%
CCS(=O)(=O)c1c(-c2nc3cc(C(F)(F)F)cnc3n2C)nc2ncc(C(F)(F)F)cn12 [1-1-054a, 2-[3-(ethylsulfonyl)-6-(trifluoromethyl)imidazo[1,2-a]pyrimidin-2-yl]-3-methyl-6-(trifluoromethyl)-3H-imidazo[4,5-b]pyridine] | ≥ 90% |  | 
CCSc1c(-c2nc3ccc(C(F)(F)F)nc3n2C)nc2cc(C(F)(F)F)ccn12 [1-1-030b, 2-[3-(ethylthio)-7-(trifluoromethyl)imidazo[1,2-a]pyridin-2-yl]-3-methyl-5-(trifluoromethyl)-3H-imidazo[4,5-b]pyridine] | ≥ 90% | ≥ 90% | 
CCSc1c(-c2nc3cc(C(F)(F)F)nc(C)c3n2C)nc2ccc(C(F)(F)F)cn12 [1-8-003b, 2-[3-(ethylthio)-6-(trifluoromethyl)imidazo[1,2-a]pyridin-2-yl]-3,4-dimethyl-6-(trifluoromethyl)-3H-imidazo[4,5-c]pyridine] | ≥ 90% | ≥ 90% | 
CCSc1c(-c2nc3cc(C(F)(F)F)cnc3n2C)nc2c(C(F)(F)F)cc(I)cn12 [1-1-066b, 2-[3-(ethylthio)-6-iodo-8-(trifluoromethyl)imidazo[1,2-a]pyridin-2-yl]-3-methyl-6-(trifluoromethyl)-3H-imidazo[4,5-b]pyridine] |  |  | ≥ 50%
CCS(=O)(=O)c1c(-c2cn3cnc(C(F)(F)C(F)(F)F)cc3n2)nc2ccc(C(F)(F)F)cn12 [1-3-008a, 2-[3-(ethylsulfonyl)-6-(trifluoromethyl)imidazo[1,2-a]pyridin-2-yl]-7-(perfluoroethyl)imidazo[1,2-c]pyrimidine] | ≥ 90% | ≥ 90% | ≥ 50%
